Data reported in patent US20260137091A1, “NEW PEPTIDES AND THE USE OF SAME FOR MODULATING ACCUMULATION OF A PROTEIN” (priority 2022, published 2026).

System: NSP1-GUS fusion protein
Test: Quantification of GUS activity in roots expressing an NSP1-GUS fusion after cPEP treatment
Assay type: in vivo
Conditions: Medicago truncatula transformed roots; treatment for 5 days with 0.1 μM cPEP by spraying; versus control (water)
Description: The y-axis represents the quantification of GUS activity in the roots of an NSP1-GUS fusion in response to treatment for 5 days with 0.1 μM of a cPEP targeting the 5′UTR region of the NSP1 gene. Error bars represent SEM, asterisks indicate a significant difference between test condition and control according to Student's t-test (n=30, p<0.05).
NSP1::GUS fusion was achieved, using a modified pCambia vector (Lauressergues et al., Nature, 520: 90-3, 2015), by cloning 3 kb of NSP1 promoter, the NSP1 gene coding sequence, the GUS protein coding sequence and 3 kb of the NSP1 gene downstream sequence (FIG. 2).
Root transformation of M. truncatula was carried out using the method described in Boisson-Dernier et al, Mol Plant Microbe Interact, 14(6): 695-700, 2001.
Plants were treated by spraying with a solution containing a low concentration of cPEPs (from 0.1 μM to 10 μM) or with water.
The accumulation of the protein targeted by cPEP was then measured in each plant by quantifying GUS activity or by quantifying protein activity by Western blot (Blizquez M., Quantitative GUS activity assay in intact plant tissue, Cold Spring Harbor Laboratory Press, Cold Spring Harbor, NY, USA, 2002).

Substance	accumulation of the NSP1 protein (quantification of GUS activity in the roots of an NSP1-GUS fusion)
SEQ ID NO: 162: cPEP (11 amino acids) translated from a fragment of the 5′UTR of NSP1 pre-mRNA, +3 reading frame (KPFKFSSSISH; NSP1-5UTR-11)	increase in the accumulation of the NSP1 protein
SEQ ID NO: 164: cPEP (10 amino acids) translated from a 30 nucleotide fragment of the 3′UTR of NSP1 pre-mRNA, +2 reading frame (CHHDEVISPQ; NSP1-3UTR)	increase in the accumulation of the NSP1 protein
